Test results taken from ChEMBL document CHEMBL3045686, “Insecticidal Activity of N-Acyl-N-(4-aryloxybenzyl)pyrazole-5-carboxamides” (2003).

tested on: Spodoptera litura; experiment: Insecticidal activity Spodoptera litura third-instar larvae fed on compound pre-treated cabbage leaf disks assessed as insect mortality at 200 ppm measured 5 days after compound treatment; type: functional; details: foliar

Row | Structure (SMILES) | mortality at 200 ppm
1 | CC(=O)N(Cc1ccc(Oc2ccc(C#N)cc2)cc1)C(=O)c1cc(CC(C)C)nn1C | > 80%
2 | CC(=O)N(Cc1ccc(Oc2ccc(C#N)cc2)cc1)C(=O)c1cc(C(C)(C)C)nn1C | < 80%
3 | CCCCOc1cc(C(=O)N(Cc2ccc(Oc3ccc(C#N)cc3)cc2)C(C)=O)n(C)n1 | > 80%
4 | CCc1cc(C(=O)N(Cc2ccc(Oc3ccccc3)cc2)C(C)=O)n(C)n1 | < 80%
5 | CCc1cc(C(=O)N(Cc2ccc(Oc3ccc(F)cc3)cc2)C(C)=O)n(C)n1 | > 80%
6 | CCc1cc(C(=O)N(Cc2ccc(Oc3ccc(Cl)cc3)cc2)C(C)=O)n(C)n1 | > 80%
7 | CCc1cc(C(=O)N(Cc2ccc(Oc3ccc(OC)cc3)cc2)C(C)=O)n(C)n1 | < 80%
8 | CCCCCc1cc(C(=O)N(Cc2ccc(Oc3ccc(C#N)cc3)cc2)C(C)=O)n(C)n1 | < 80%
9 | CCc1cc(C(=O)N(Cc2ccc(Oc3ccc(C)cc3)cc2)C(C)=O)n(C)n1 | > 80%
10 | CCCCc1cc(C(=O)N(Cc2ccc(Oc3ccc(C#N)cc3)cc2)C(C)=O)n(C)n1 | < 80%

tested on: Spodoptera litura; experiment: Insecticidal activity Spodoptera litura third-instar larvae fed on compound pre-treated cabbage leaf disks assessed as insect mortality at 50 ppm measured 5 days after compound treatment; type: functional; details: foliar

Row | Structure (SMILES) | mortality at 50 ppm
11 | COc1cc(C(=O)N(Cc2ccc(Oc3ccc(C#N)cc3)cc2)C(C)=O)n(C)n1 | > 80%
12 | CC(=O)N(Cc1ccc(Oc2ccc(C#N)cc2)cc1)C(=O)c1cc(C)nn1C | > 80%
13 | CC(=O)N(Cc1ccc(Oc2ccc(C#N)cc2)cc1)C(=O)c1cc(C(C)C)nn1C | > 80%
14 | CCOc1cc(C(=O)N(Cc2ccc(Oc3ccc(C#N)cc3)cc2)C(C)=O)n(C)n1 | > 80%
15 | CC(=O)N(Cc1ccc(Oc2ccc(C#N)cc2)cc1)C(=O)c1cc(OC(C)C)nn1C | > 80%
16 | CCc1cc(C(=O)N(Cc2ccc(Oc3ccc(C#N)cc3)cc2)C(=O)C(C)(C)C)n(C)n1 | > 80%
17 | CCc1cc(C(=O)NCc2ccc(Oc3ccc(C#N)cc3)cc2)n(C)n1 | > 80%

tested on: Spodoptera litura; experiment: Insecticidal activity Spodoptera litura third-instar larvae fed on compound pre-treated cabbage leaf disks assessed as insect mortality at 13 ppm measured 5 days after compound treatment; type: functional; details: foliar

Row | Structure (SMILES) | mortality at 13 ppm
18 | CCc1cc(C(=O)N(Cc2ccc(Oc3ccc(C#N)cc3)cc2)C(=O)C2CC2)n(C)n1 | > 80%
19 | CCCCC(=O)N(Cc1ccc(Oc2ccc(C#N)cc2)cc1)C(=O)c1cc(CC)nn1C | > 80%
20 | CCC(C)c1cc(C(=O)N(Cc2ccc(Oc3ccc(C#N)cc3)cc2)C(C)=O)n(C)n1 (stereo unspecified) | > 80%
21 | CCc1cc(C(=O)N(Cc2ccc(Oc3ccc(C(F)(F)F)cc3)cc2)C(C)=O)n(C)n1 | > 80%
22 | CCCC(=O)N(Cc1ccc(Oc2ccc(C#N)cc2)cc1)C(=O)c1cc(CC)nn1C | > 80%
23 | CCCc1cc(C(=O)N(Cc2ccc(Oc3ccc(C#N)cc3)cc2)C(C)=O)n(C)n1 | > 80%
24 | CCc1cc(C(=O)N(Cc2ccc(Oc3ccc(C#N)cc3)cc2)C(=O)CC(C)C)n(C)n1 | > 80%
25 | CCc1cc(C(=O)N(Cc2ccc(Oc3ccc(C#N)cc3)cc2)C(=O)C(C)CC)n(C)n1 (stereo unspecified) | > 80%
26 | CCC(=O)N(Cc1ccc(Oc2ccc(C#N)cc2)cc1)C(=O)c1cc(CC)nn1C | > 80%
27 | CCc1cc(C(=O)N(Cc2ccc(Oc3ccc([N+](=O)[O-])cc3)cc2)C(C)=O)n(C)n1 | > 80%
28 | CC(=O)N(Cc1ccc(Oc2ccc(C#N)cc2)cc1)C(=O)c1cc(C2CC2)nn1C | > 80%

tested on: Spodoptera litura; experiment: Insecticidal activity Spodoptera litura third-instar larvae fed on compound pre-treated cabbage leaf disks assessed as insect mortality at 3.1 ppm measured 5 days after compound treatment; type: functional; details: foliar

Row | Structure (SMILES) | mortality at 3.1 ppm
29 | CCc1cc(C(=O)N(Cc2ccc(Oc3ccc(SC)cc3)cc2)C(C)=O)n(C)n1 | > 80%
30 | CCc1cc(C(=O)N(Cc2ccc(Oc3ccc(C#N)cc3)cc2)C(=O)C(C)C)n(C)n1 | > 80%
31 | CCc1cc(C(=O)N(Cc2ccc(Oc3ccc(C#N)cc3)cc2)C(C)=O)n(C)n1 | > 80%
